Results as given in PubChem BioAssay (NCI).
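48-hour exposure; five concentrations; linearly interpolated endpoints. Abbreviation: GI50, concentration required for 50% inhibition of growth. TGI is the concentration that stops growth completely.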

Tests used:
Experiment in all cases: NCI anticancer screen, dose series, 48 h
MALME-3M melanoma = test system: MALME-3M melanoma
HOP-92 NSCLC = test system: HOP-92 NSCLC
OVCAR-8 ovarian = test system: OVCAR-8 ovarian
HCT-15 colon = test system: HCT-15 colon
ACHN renal = test system: ACHN renal
DU-145 prostate = test system: DU-145 prostate
SW-620 colon = test system: SW-620 colon
OVCAR-3 ovarian = test system: OVCAR-3 ovarian
MDA-MB-435 = test system: MDA-MB-435
A498 renal = test system: A498 renal
OVCAR-4 ovarian = test system: OVCAR-4 ovarian
NCI-H226 lung = test system: NCI-H226 lung
SF-539 CNS = test system: SF-539 CNS
MCF7 breast = test system: MCF7 breast
NCI/ADR-RES ovarian = test system: NCI/ADR-RES ovarian
BT-549 breast = test system: BT-549 breast
A549 NSCLC = test system: A549 NSCLC
SK-OV-3 ovarian = test system: SK-OV-3 ovarian
HCC-2998 colon = test system: HCC-2998 colon
UO-31 renal = test system: UO-31 renal
HT29 colon = test system: HT29 colon
SK-MEL-28 melanoma = test system: SK-MEL-28 melanoma
SN12C renal = test system: SN12C renal
UACC-62 melanoma = test system: UACC-62 melanoma
EKVX NSCLC = test system: EKVX NSCLC
HCT-116 colon = test system: HCT-116 colon
SNB-19 CNS = test system: SNB-19 CNS
KM12 colon = test system: KM12 colon
786-0 renal = test system: 786-0 renal
M14 melanoma = test system: M14 melanoma
HS 578T breast = test system: HS 578T breast
SK-MEL-5 melanoma = test system: SK-MEL-5 melanoma
CCRF-CEM leukemia = test system: CCRF-CEM leukemia
LOX IMVI melanoma = test system: LOX IMVI melanoma
HOP-62 NSCLC = test system: HOP-62 NSCLC
TK-10 renal = test system: TK-10 renal
RPMI-8226 leukemia = test system: RPMI-8226 leukemia
SNB-75 CNS = test system: SNB-75 CNS
RXF 393 renal = test system: RXF 393 renal
NCI-H522 lung = test system: NCI-H522 lung
CAKI-1 renal = test system: CAKI-1 renal
OVCAR-5 ovarian = test system: OVCAR-5 ovarian
IGROV1 ovarian = test system: IGROV1 ovarian
MDA-MB-231 breast = test system: MDA-MB-231 breast
PC-3 prostate = test system: PC-3 prostate
COLO 205 colon = test system: COLO 205 colon
SF-295 CNS = test system: SF-295 CNS
K-562 leukemia = test system: K-562 leukemia
MOLT-4 leukemia = test system: MOLT-4 leukemia
U251 CNS = test system: U251 CNS
NCI-H460 lung = test system: NCI-H460 lung
SF-268 CNS = test system: SF-268 CNS
UACC-257 melanoma = test system: UACC-257 melanoma
T-47D breast = test system: T-47D breast

O=S(=O)(NCCCNc1nccc(-c2[nH]c(-c3ccccc3)nc2-c2ccc(F)c(O)c2)n1)c1ccc(C(F)(F)F)cc1
GI50 (MALME-3M melanoma): 1.21 µM | TGI (MALME-3M melanoma): 3.47 µM | GI50 (HOP-92 NSCLC): 2.15 µM | TGI (HOP-92 NSCLC): 9.16 µM | GI50 (OVCAR-8 ovarian): 3.37 µM | TGI (OVCAR-8 ovarian): > 100 µM | GI50 (HCT-15 colon): 3.04 µM | TGI (HCT-15 colon): 9.62 µM | GI50 (ACHN renal): 2.85 µM | TGI (ACHN renal): 8.78 µM | GI50 (DU-145 prostate): 3.06 µM | TGI (DU-145 prostate): 11.5 µM | GI50 (SW-620 colon): 4.09 µM | TGI (SW-620 colon): 15 µM | GI50 (OVCAR-3 ovarian): 2.62 µM | TGI (OVCAR-3 ovarian): 5.49 µM | GI50 (MDA-MB-435): 1.59 µM | TGI (MDA-MB-435): 3.7 µM | GI50 (A498 renal): 2.68 µM | TGI (A498 renal): 7.38 µM | GI50 (OVCAR-4 ovarian): 3.62 µM | TGI (OVCAR-4 ovarian): 24.1 µM | GI50 (NCI-H226 lung): 3.85 µM | TGI (NCI-H226 lung): 16.7 µM | GI50 (SF-539 CNS): 2 µM | TGI (SF-539 CNS): 3.85 µM | GI50 (MCF7 breast): 2.82 µM | TGI (MCF7 breast): 10.4 µM | GI50 (NCI/ADR-RES ovarian): 3.88 µM | TGI (NCI/ADR-RES ovarian): 18.9 µM | GI50 (BT-549 breast): 2.53 µM | TGI (BT-549 breast): 7.12 µM | GI50 (A549 NSCLC): 3.04 µM | TGI (A549 NSCLC): 12.4 µM | GI50 (SK-OV-3 ovarian): 3.46 µM | TGI (SK-OV-3 ovarian): 18.8 µM | GI50 (HCC-2998 colon): 2.8 µM | TGI (HCC-2998 colon): 6.53 µM | GI50 (UO-31 renal): 2.69 µM | TGI (UO-31 renal): 7.17 µM | GI50 (HT29 colon): 2.96 µM | GI50 (SK-MEL-28 melanoma): 1.61 µM | TGI (SK-MEL-28 melanoma): 4.46 µM | GI50 (SN12C renal): 2.59 µM | TGI (SN12C renal): 7.62 µM | GI50 (UACC-62 melanoma): 1.29 µM | TGI (UACC-62 melanoma): 2.82 µM | GI50 (EKVX NSCLC): 3.61 µM | TGI (EKVX NSCLC): 16 µM | GI50 (HCT-116 colon): 2.18 µM | TGI (HCT-116 colon): 5.11 µM | GI50 (SNB-19 CNS): 3.51 µM | TGI (SNB-19 CNS): 11.1 µM | GI50 (KM12 colon): 3.05 µM | TGI (KM12 colon): 9.09 µM | GI50 (786-0 renal): 3.52 µM | TGI (786-0 renal): 11.7 µM | GI50 (M14 melanoma): 1.46 µM | TGI (M14 melanoma): 4.09 µM | GI50 (HS 578T breast): 2.71 µM | TGI (HS 578T breast): 7.12 µM | GI50 (SK-MEL-5 melanoma): 1.69 µM | TGI (SK-MEL-5 melanoma): 3.23 µM | GI50 (CCRF-CEM leukemia): 3.46 µM | TGI (CCRF-CEM leukemia): > 100 µM | GI50 (LOX IMVI melanoma): 2.01 µM | TGI (LOX IMVI melanoma): 4.78 µM | GI50 (HOP-62 NSCLC): 2.89 µM | TGI (HOP-62 NSCLC): 10.9 µM | GI50 (TK-10 renal): 3.79 µM | TGI (TK-10 renal): 28.1 µM | GI50 (RPMI-8226 leukemia): 2.49 µM | TGI (RPMI-8226 leukemia): 7.05 µM | GI50 (SNB-75 CNS): 2.22 µM | TGI (SNB-75 CNS): 7.79 µM | GI50 (RXF 393 renal): 2.3 µM | TGI (RXF 393 renal): 5 µM | GI50 (NCI-H522 lung): 2.42 µM | TGI (NCI-H522 lung): 7.12 µM | GI50 (CAKI-1 renal): 2.57 µM | TGI (CAKI-1 renal): 13.8 µM | GI50 (OVCAR-5 ovarian): 3.12 µM | TGI (OVCAR-5 ovarian): 9.26 µM | GI50 (IGROV1 ovarian): 2.41 µM | TGI (IGROV1 ovarian): 6.72 µM | GI50 (MDA-MB-231 breast): 2.75 µM | TGI (MDA-MB-231 breast): 8.44 µM | GI50 (PC-3 prostate): 3.08 µM | TGI (PC-3 prostate): > 100 µM | GI50 (COLO 205 colon): 3.06 µM | TGI (COLO 205 colon): 9.77 µM | GI50 (SF-295 CNS): 1.88 µM | TGI (SF-295 CNS): 3.58 µM | GI50 (K-562 leukemia): 2.87 µM | TGI (K-562 leukemia): > 100 µM | GI50 (MOLT-4 leukemia): 3.02 µM | TGI (MOLT-4 leukemia): > 100 µM | GI50 (U251 CNS): 3.15 µM | TGI (U251 CNS): 9.85 µM | GI50 (NCI-H460 lung): 2.26 µM | TGI (NCI-H460 lung): 5.07 µM | GI50 (SF-268 CNS): 2.55 µM | TGI (SF-268 CNS): 7.25 µM | GI50 (UACC-257 melanoma): 2.48 µM | TGI (UACC-257 melanoma): 7.33 µM | GI50 (T-47D breast): 2.56 µM | TGI (T-47D breast): 22 µM
